Converted amounts (≈) assume the structure as drawn. Structures can show the parent of a compound that is named as a salt.
Experiments:
[1] = Determination of pKa (capillary electrophoresis, Analiza); format: physicochemical; conditions: most basic pKa, mean
[2] = molecular target: DGAT2 in human hepatocytes (Homo sapiens (Human), UniProt Q96PD7); assay: Determination of IC50 values for DGAT2 inhibitors in human hepatocytes; format: cell-based; conditions: inhibition of DGAT2 in human hepatocytes; geometric mean
Procedure: For evaluation of the effects of DGAT2 inhibitors in a cell-based setting, cryopreserved human hepatocytes (Lot DOO, Celsis, Baltimore, Md.) were thawed and plated onto type I collagen-coated plates according to the manufacturer's instructions. After 18 hours overnight recovery period, the cells were overlayed with media containing 250 μg/mL Geltrex Basement Membrane Matrix (Thermo Fisher). The following day, media was aspirated and replaced with serum-free Williams Media E (Thermo Fisher) containing 400 μM sodium dodecanoate (Sigma-Aldrich, St. Louis, Mo.) and 2 mM GlutaMAX (Thermo Fisher). […] DGAT2 inhibitors were then added to the desired final concentration. After a 15 minute preincubation, 0.2 μCi [^14C(U)]-glycerol (Perkin Elmer) was added to each well followed by a 3 hour incubation. At this point the media was removed, and the cells lysed via orbital shaking in isopropyl alcohol:tetrahydrofuran (9:1) for 15 minutes prior to centrifugation at 3000 rpm for 10 minutes. Radiolabeled lipids were resolved using a solvent system by thin layer chromatography with the solvent consisting of hexanes:diethyl ether:glacial acetic acid (75:23:2, v/v/v). After separation, radiolabeled lipids were visualized using the Typhoon 9500 phosphorimaging system (GE). The half maximal inhibitory concentrations (IC50 values) were determined by nonlinear regression analysis of the % inhibition dose response curve using GraphPad Prism (GraphPad Software, Inc., La Jolla, Calif.).
Table 5 below provides the IC50 values of selected Examples for inhibition of DGAT2 in human hepatocytes in accordance with the above-described assay. Results are reported as geometric mean IC50 values, with the number of replicates (n) shown.

[3] = molecular target: human DGAT2 (hDGAT2) (Homo sapiens (Human), UniProt Q96PD7); assay: In vitro DGAT2 assay, determination of IC50 values for DGAT2 inhibitors; format: biochemical; conditions: inhibition of DGAT2, hDGAT2 membrane fractions; geometric mean
Procedure: Recombinant baculovirus for the FLAG-tagged hDGAT2 was generated in SF9 insect cells using Bac-to-Bac baculovirus expression system (Invitrogen) according to the manufacturer's protocol. For the expression of hDGAT2, SF9 cells (20 L) grown in Sf900II media were infected with hDGAT2 baculovirus at a multiplicity of infection of 1 in a Wave Bioreactor System 20/50P wave bag (GE Healthcare). After 40 hours of infection, the cells were then harvested by centrifugation at 5,000×g. The cell pellets were washed by resuspending in phosphate buffered saline (PBS) and collected by centrifugation at 5,000×g. The cell paste was flash frozen in liquid N2 and stored at −80° C. until needed. All operations below were at 4° C. unless otherwise noted. The cells were resuspended in lysis buffer (50 mM Tris-HCl, pH 8.0, 250 mM sucrose) including 1 mM ethylenediaminetetraacetic acid (EDTA) and the complete protease inhibitor cocktail (Roche Diagnostics) at a ratio of 3 mL buffer per 1 g cell paste. The cells were lysed by dounce homogenizer. The cell debris was removed by centrifugation at 1,000×g for 20 min, and the supernatant was centrifuged at 100,000×g for 1 hour. The resulting pellet was rinsed three times by filling ultracentrifuge tubes to the top with ice cold PBS before decanting. The washed pellet was resuspended with gentle stirring for 1 hour in lysis buffer containing 8 mM 3-[(3-cholamidopropyl)dimethylammonio]-1-propanesulfonate (CHAPS) at a ratio of 1 mL buffer per 1 g of original cell paste and centrifuged again at 100,000×g for 1 hour. The resulting supernatant was aliquotted, flash frozen in liquid N2, and stored at −80° C. until use.
To 1 μL of compounds dissolved in 100% DMSO and spotted at the bottom of each well, 5 μL of 0.04% bovine serum albumin (BSA) (fatty acid free, Sigma Aldrich) was added and the mixture was incubated at room temperature for 15 minutes. hDGAT2 membrane fractions were diluted in 100 mM Hepes-NaOH, pH 7.4, 20 mM MgCl2 containing 200 nM methyl arachidonyl fluorophosphonate (Cayman Chemical, dried from ethyl acetate stock solution under argon gas and dissolved in DMSO as 5 mM stock). 10 μL of this enzyme working solution was added to the plates and incubation continued for 2 hours at room temperature. DGAT2 reactions were initiated by the addition of 4 μL of substrates containing 30 μM [1-^14C]decanoyl-CoA (custom-synthesized by Perkin Elmer, 50 mCi/mmol) and 125 μM 1,2-didecanoyl-sn-glycerol (Avanti Polar Lipids) dissolved in 12.5% acetone. The reaction mixtures were incubated at room temperature for 40 min and the reactions were stopped by addition of 5 μL of 1% H3PO4. After the addition of 45 μL MicroScint-E (Perkin-Elmer), plates were sealed with Top Seal-A covers (Perkin-Elmer) and phase partitioning of substrates and products was achieved using a HT-91100 microplate orbital shaker (Big Bear Automation, Santa Clara, Calif.). Plates were centrifuged at 2,000×g for 1 minute in an Allegra 6R Centrifuge (Beckman Coulter) and then were sealed again with fresh covers before reading in a 1450 Microbeta Wallac Trilux Scintillation Counter (Perkin Elmer). DGAT2 activity was measured by quantifying the generated product [^14C]tridecanoylglycerol in the upper organic phase.
Inhibitors were tested at eleven different concentrations to generate IC50 values for each compound.

[4] = Intrinsic clearance in human liver microsomes; format: in vitro ADME; conditions: 1 μM test compound, mean +/− STD Dev; for microsomal CLint at 1 μM: human, pooled human liver microsomes, pH 7.4, human liver microsome assay; for CLint (+/−STD Dev): human liver microsome assay
Procedure: The incubations were conducted at 37° C. […] (Sorvall R C 3C Plus, Thermo Scientific, Waltham, Mass.).

[5] = High throughput determination of intrinsic clearance in human hepatocytes; format: in vitro ADME; conditions: human, pooled cryopreserved human hepatocytes (suspension), high throughput human hepatocyte assay, 1 μM test compound; mean +/− Std Dev
Procedure: (§1) The incubation was carried out at 37° C. […] The samples were centrifuged (Eppendorf, Hauppauge, N.Y.) at 3000 rpm for 5 min at 4° C.

[6] = test system: human hepatocytes; assay: Intrinsic clearance in human hepatocytes (relay method); format: in vitro ADME; conditions: relay hepatocyte assay, 1 μM test compound, mean +/− Std Dev
Procedure: (§2) Cryopreserved human hepatocytes (Lot DCM from BioreclamationIVT) were used. […] At time 0 and 4 h, 25 μL of hepatocyte suspension was removed from the incubation and added to 50 μL of ice-cold acetonitrile (containing metoprolol, indomethacin, and terfenadine as internal standards) to quench the reaction. The samples were centrifuged (Eppendorf, Hauppauge, N.Y.) at 3000 rpm (1439×g) for 10 min at room temperature, and 50 μL of supernatant was transferred to a clean plate, dried completely, and reconstituted before liquid chromatography/tandem mass spectrometry (LC-MS/MS) analysis. The remaining hepatocyte suspensions in the incubation plate were centrifuged (3000 rpm, 1439×g, 10 min, room temperature). The supernatant of 300 μL was transferred to a clean 24-well plate and stored at −80° C. until the next relay experiment. For the second relay experiment, the supernatant plates were warmed first to room temperature for 30 minutes, then to 37° C. for 30 min, and hepatocytes were added to the samples to give a final cell density of 0.5 million cells/mL. The plates were incubated at 37° C. for 4 h, sampled, and processed as described above. Five relays were performed to give a total incubation time of 20 h, with sampling points at (0, 4, 8, 12, 16 and 20 h). The concentrations of test compound determined at each time point by the LC-MS/MS analysis were used to calculate the intrinsic clearance.

[7] = test system: human hepatocytes; assay: High throughput determination of intrinsic clearance in human hepatocytes; format: in vitro ADME; conditions: high throughput human hepatocyte assay, 1 μM test compound; mean +/− Std Dev
Procedure: as §1

[8] = Intrinsic clearance in human hepatocytes (relay method); format: in vitro ADME; conditions: cryopreserved human hepatocytes (suspension), relay hepatocyte assay, 1 μM test compound, mean +/− Std Dev
Procedure: as §2

[9] = Thermodynamic solubility in various biorelevant media (PBS, SGN, FaSSIF, FeSSIF); format: physicochemical
Procedure: The solubility of active pharmaceutical ingredients is an important characteristic in determining biological performance and ease of formulation during drug development, with high solubility being preferred (Klein, S. 2010, The AAPS Journal, 12, 397-406; Di, L., et al 2012, Drug Disc. Today, 17.486-495). A test sample of crystalline solid (˜7 mg) was combined in a vial with 1 mL of the relevant buffer solution and the mixture vortexed to combine. If the solid dissolved completely, additional solid was added with vortexing until a saturated solution was obtained. The saturated solution/solid mixture was capped and subjected to temperature cycling as follows: 1 min at 25° C.; 8 h at 40° C.; 5 h at 15° C. and 12 h at 25° C. The mixture was filtered in a centrifugal filtration device (0.22 μm PVDF filter, MilliporeSigma, Milwaukee, Wis.) at 13,000 rpm and the concentration of the test compound in the filtrate was determined by HPLC/UPLC with reference to a three point standard curve. Phosphate buffered saline (PBS, pH 6.8, 50 mM phosphate buffer, 250 mM NaCl). Simulated gastric fluid (SGN pH 1.2, USP recipe). Fasted state simulated intestinal fluid (FaSSIF, 3 mM sodium taurocholate, 0.75 mM phospholipid from soybean lecithin, 50 mM phosphate buffer, ionic strength adjusted to 250 mM with NaCl, pH 6.8) and fed state simulated intestinal fluid (FeSSIF, 15 mM sodium taurocholate, 3.75 mM phospholipid from soybean lecithin, 144 mM acetic acid, 50 mM phosphate buffer, ionic strength adjusted to 250 mM with NaCl, pH 6.8).

Sequence of DGAT2 in human hepatocytes (Q96PD7 whole entry): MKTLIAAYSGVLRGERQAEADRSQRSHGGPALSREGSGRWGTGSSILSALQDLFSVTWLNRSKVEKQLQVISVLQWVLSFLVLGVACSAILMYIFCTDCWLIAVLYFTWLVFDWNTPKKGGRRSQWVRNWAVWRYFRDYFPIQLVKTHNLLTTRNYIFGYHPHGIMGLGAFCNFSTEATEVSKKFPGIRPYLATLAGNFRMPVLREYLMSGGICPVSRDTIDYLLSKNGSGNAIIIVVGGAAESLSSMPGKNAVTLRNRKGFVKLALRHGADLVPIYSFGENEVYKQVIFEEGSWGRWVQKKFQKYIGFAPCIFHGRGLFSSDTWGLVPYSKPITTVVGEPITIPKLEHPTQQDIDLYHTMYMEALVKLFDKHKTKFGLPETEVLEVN
Sequence of human DGAT2 (hDGAT2) (Q96PD7 whole entry): as above

pKa [1] | IC50 [2] | microsomal CLint at 1 μM [4] | hepatocyte CLint at 1 μM [5] | SMILES | IC50 [3] | Basic pKa [1] | CLint (+/−Std Dev) [6] | CLint (+/−STD Dev) [4] | CLint (+/−Std Dev) [7] | other results
6.8 | > 130 nM | 11 µL/min/mg | 6.5 µL/min/1e6 cells | CCOc1cccnc1Oc1cncc(-c2ncc(C(=O)N[C@H]3CNC[C@@H](F)C3)cn2)c1 (racemic) [Example 25, rac-2-{5-[(3-ethoxypyridin-2-yl)oxy]pyridin-3-yl}-N-[(3R,5S)-5-fluoropiperidin-3-yl]pyrimidine-5-carboxamide, trifluoroacetate salt] | 200 nM | – | – | – | – | –
– | – | – | – | CCOc1cccnc1Oc1cncc(-c2ncc(C(=O)NC3(CO)CCOC3)cn2)c1 (single isomer, unassigned) [WO2018033832 Ex. 6a] | – | 2.3 | 3.2 +/− 0.21 μL/min/million cells | 13 ± 2.0 µL/min/mg | <3.8 +/− 1.1 μL/min/10^6 cells | –
– | – | – | – | CCOc1cccnc1Oc1cncc(-c2ncc(C(=O)NC3(CO)CCOC3)cn2)c1 (single isomer, unassigned) [WO2018033832 Ex. 6b] | – | 2.4 | 2.9 +/− 0.057 μL/min/million cells | <11 ± 3.5 µL/min/mg | <3.3 +/− 0.49 μL/min/10^6 cells | –
7.3 | 26 nM | < 7 µL/min/mg | < 1.9 µL/min/1e6 cells | CCOc1cccnc1Oc1cncc(-c2ncc(C(=O)N[C@@H]3CNCC[C@H]3F)cn2)c1 [Example 5, 2-{5-[(3-Ethoxypyridin-2-yl)oxy]pyridin-3-yl}-N-[(3R,4R)-4-fluoropiperidin-3-yl]pyrimidine-5-carboxamide] | – | – | – | – | – | hepatocyte CLint at 1 μM [8]: 1.9 µL/min/1e6 cells
7.5 | 100 nM | < 7 µL/min/mg | < 1.8 µL/min/1e6 cells | CCOc1cccnc1Oc1cncc(-c2ncc(C(=O)N[C@H]3CNC[C@H](F)C3)cn2)c1 [Example 7, 2-{5-[(3-ethoxypyridin-2-yl)oxy]pyridin-3-yl}-N-[(3R,5R)-5-fluoropiperidin-3-yl]pyrimidine-5-carboxamide, trifluoroacetate salt] | – | – | – | – | – | –
– | – | – | – | CCOc1cccnc1Oc1cncc(-c2ncc(C(=O)N[C@H]3CCOC3)cn2)c1 [WO2018033832 Ex. 1, Form 1] | – | – | – | – | – | Solubility ([9]; FaSSIF pH 6.8): 69 µg/mL (≈ 169 µM); Solubility ([9]; PBS, pH 6.8): 43 µg/mL (≈ 106 µM); Solubility ([9]; SGN pH 1.2): 78 µg/mL (≈ 191 µM)
– | – | – | – | CCOc1cccnc1Oc1cncc(-c2ncc(C(=O)N[C@H]3CCOC3)cn2)c1 [WO2018033832 Ex. 1, Form 2] | – | – | – | – | – | Solubility ([9]; FaSSIF pH 6.8): 93 µg/mL (≈ 228 µM); Solubility ([9]; PBS, pH 6.8): 60 µg/mL (≈ 147 µM); Solubility ([9]; SGN pH 1.2): 1082 µg/mL (≈ 2660 µM)
– | – | – | – | CCOc1cccnc1Oc1cncc(-c2ncc(C(=O)N[C@@H]3CCOC3)cn2)c1 [WO2018033832 Ex. 2] | 200 nM | 2.5 | 4.9 +/− 0.17 μL/min/million cells | 17 ± 1.3 µL/min/mg | 4.7 +/− 0.55 μL/min/10^6 cells | –

SMILES | pKa [1] | IC50 [2] | microsomal CLint at 1 μM [4] | hepatocyte CLint at 1 μM [5] | IC50 [3] | Basic pKa [1] | CLint (+/−Std Dev) [6] | CLint (+/−STD Dev) [4] | CLint (+/−Std Dev) [7] | other results
CCOc1cccnc1Oc1cncc(-c2ncc(C(=O)N[C@H]3CCOC3)cn2)c1 [WO2018033832 Ex. 1] | – | 2.8 nM | – | – | 17 nM | 2.4 | 3.9 +/− 0.52 μL/min/million cells | 11 ± 2.9 µL/min/mg | <3.8 +/− 1.1 μL/min/10^6 cells | –

Source: patent publication US11065249B2, “Diacylglycerol acyl transferase 2 inhibitor” (Pfizer Inc., priority 2019, dated 2021)
